Article PMC7023466, “Novel N,N′-Disubstituted Acylselenoureas as Potential Antioxidant and Cytotoxic Agents” (Antioxidants, 2020)
Like-named read-outs stand apart in the source and are kept apart here.

Legend:
[1] = DPPH radical scavenging assay; settings: for DPPH radical scavenging: 0.003 mg/mL
Description: DPPH assay was performed as described by Svinyarov. Briefly, each compound was initially dissolved in absolute methanol at a concentration of 1 mg/mL, and serial dilutions were prepared. Ascorbic acid (Asc), a well-known and potent antioxidant, was used as a positive control. A methanolic solution (100 µM) of DPPH^• was prepared daily and […]. The absorbance measurements of this solution were needed in order to check the stability of the radical through the time of analysis. Then, 100 µL of DPPH in methanol were added to 100 µL of the compounds’ solutions, and the decolorization of the purple radical to the yellow reduced form was followed at 517 nm. Determinations were recorded at several time intervals. All of the measurements were carried out in triplicate. The results were expressed as the percentage of the radical scavenged, calculated using the following formula:(1) % DPPH radical scavenging = Acontrol−Asample/Acontrol × 100 where Acontrol refers to the absorbance of the negative control and Asample refers to the absorbance of the tested compounds. The results are expressed as percentage of DPPH radical scavenging ± standard deviation (SD).

[2] = system: MCF-7 cells; assay: MTT cell viability assay, MCF-7; format: cell-based, human; settings: for activity at 10 µM / activity at 50 µM / IC50: Homo sapiens, MCF7; for activity at 10 µM / activity at 50 µM / reduction of cell growth / IC50: 48 h; for activity at 10 µM / activity at 50 µM: read-out: Growth (%) MCF-7; for reduction of cell growth: in at least one of the cell lines (MCF-7, HT-29, HTB-54); for SI (selectivity index): IC50 (184B5)/IC50 (MCF-7)
Description: (§1) The cell viability assay of each compound was carried out using the MTT assay. Each compound was dissolved in dimethyl sulfoxide (DMSO) at a concentration of 0.01 M. Serial dilutions were prepared with a non-supplemented culture medium. The effect of each compound on the cell viability was determined at two different concentrations (10 and 50 µM) in MCF-7, HTB-54, and HT-29 cells. In addition, the selected compounds were tested at six different concentrations between 0.1–100 µM in MCF-7, T47D, H1299, HTB-54, and 184B5 cells.
(§2) Briefly, 1 × 10^4 tumor cells/well or 2 × 10^4 non-tumorigenic cells/well were grown in 96-well plates for 12 h. Then, these cells were incubated with either DMSO (control) or a different concentration of each of the tested compounds for 48 h. Three hours before the termination point, 20 µL of MTT were added to measure the cellular viability. The resultant formazan crystals were dissolved in 50 µL of DMSO, and the absorbance was measured at 570 and 630 nm. The results are expressed as IC50, the half maximal inhibitory concentration. This value was calculated using OriginPro 8.5.1. software (OriginLab, Northampton, MA, USA) by nonlinear curve fitting. Furthermore, the selectivity index (SI) was calculated as the ratio of the IC50 values determined for the non-malignant and the tumor cells (IC50 (184B5)/IC50 (MCF-7). The data were obtained from at least three independent experiments performed in quadruplicates.

[3] = system: HT-29 cells; assay: MTT cell viability assay, HT-29; format: cell-based; settings: Homo sapiens, 48 h, read-out: Growth (%) HT-29
Description: as §1, §2

[4] = system: HTB-54 cells; assay: MTT cell viability assay, HTB-54; format: cell-based; settings: Homo sapiens, 48 h; for activity at 10 µM / activity at 50 µM: read-out: Growth (%) HTB-54
Description: as §1, §2

[5] = system: H1299 cells; assay: MTT cell viability assay, H1299; format: cell-based; settings: Homo sapiens, NCI-H1299, lung cancer cells, 48 h
Description: as §1, §2

[6] = system: T47D cells; assay: MTT cell viability assay, T47D; format: cell-based; settings: Homo sapiens, breast cancer cells, 48 h
Description: as §1, §2

[7] = system: 184B5 cells; assay: MTT cell viability assay, non-malignant 184B5; format: cell-based; settings: Homo sapiens, non-malignant breast cells, 48 h
Description: as §1, §2

[8] = MCF-7 and T47D pooled, read-out: IC50 on breast cancer cells
[9] = breast cancer cells, MTT, read-out: IC50 MCF-7
[10] = HTB-54, lung cancer cells, MTT, read-out: IC50 HTB-54

| SMILES | DPPH inhibition compared with Asc ([1]; 0.0006 mg/mL, all time-points) | DPPH radical scavenging [1] | activity at 10 µM ([2]; 10 μM) | activity at 50 µM ([2]; 50 μM) | activity at 10 µM [3] | activity at 50 µM [3] | activity at 10 µM ([4]; HTB-54) | activity at 50 µM ([4]; HTB-54) | reduction of cell growth ([2]; 10 μM) | reduction of cell growth ([2]; 50 μM) | IC50 [2, 8] | IC50 [2, 9] | IC50 [4, 10] | IC50 [5] | IC50 [6] | IC50 [7] | SI (selectivity index) [2] | IC50 ([4]; HTB-54 and H1299 pooled, read-out: IC50 on both lung cancer cells) |
| --- | --- | --- | --- | --- | --- | --- | --- | --- | --- | --- | --- | --- | --- | --- | --- | --- | --- | --- |
| COc1ccc(NC(=[Se])NC(=O)c2ccccc2)cc1 [Compound 1c] | greater inhibition compared with Asc | around 40% | 67.8% | 13.9% | 74.9% | 31.9% | 64.4% | 57.2% |  |  |  |  |  |  |  |  |  |  |
| O=C(NC(=[Se])Nc1ccc(Cl)cc1)c1ccccc1 [Compound 1e] |  | around 40% | 74% | 13.9% | 77.9% | 33.8% | 82.3% | 57.2% |  |  |  |  |  |  |  |  |  |  |
| O=C(NC(=[Se])Nc1ccc(C(F)(F)F)cc1)c1cccs1 [Compound 5d] |  |  | 46.7% | 23.5% | 60.6% | 29.3% | 76.2% | 4.3% | at least 45% | more than 85% | 4.2 to 8 µM | 4.2 ± 0.2 µM | 14.6 ± 6.3 µM | 7.5 ± 0.2 µM | 6.1 ± 0.4 µM | > 100 µM |  |  |
| O=C(NC(=[Se])Nc1ccccc1)c1ccco1 [Compound 6a] |  |  | 39.9% | 5% | 72.6% | 35.5% | 72.8% | 0.7% | at least 45% | more than 85% |  | 3.5 ± 0.6 µM | 26.1 ± 2.3 µM | 30.2 ± 7.2 µM | 7.8 ± 1 µM | 52.2 ± 3.8 µM | 14.7 |  |
| O=C(/C=C/c1ccccc1)NC(=[Se])Nc1ccccc1 [Compound 8a] |  |  | 75.8% | 15.3% | 98.6% | 34.2% | 65.2% | 49.7% |  |  |  |  |  |  |  |  |  |  |
| O=C(C=Cc1ccccc1)NC(=[Se])Nc1ccc(C(F)(F)F)cc1 [Compound 8d] |  |  | 91.1% | 18.5% | 76% | 37.3% | 90% | 41.1% |  |  |  |  |  |  |  |  |  |  |
| O=C(C=Cc1ccccc1)NC(=[Se])Nc1ccc(Cl)cc1 [Compound 8e] |  |  | 69.6% | 11.8% | 85.2% | 40.6% | 76.1% | 31.2% |  |  |  |  |  |  |  |  |  |  |
| O=C(NC(=[Se])Nc1ccccc1)c1cc2ccccc2s1 [Compound 9a] |  |  | 64.9% | 43.4% | 62% | 28.6% | 66.9% | 3.3% |  |  |  |  |  |  |  |  |  |  |
| Cc1ccc(NC(=[Se])NC(=O)c2cc3ccccc3s2)cc1 [Compound 9b] |  |  | 76.8% | 62.8% | 64.3% | 36.2% | 79% | 19% |  |  |  |  |  |  |  |  |  |  |
| O=C(NC(=[Se])Nc1ccc(Cl)cc1)c1cc2ccccc2s1 [Compound 9e] |  |  | 54.8% | 44.4% | 45.4% | 33.5% | 32.9% | 9% | at least 45% | more than 85% |  | 9.8 ± 0.9 µM | > 100 µM | 8.7 ± 1.4 µM | 7.1 ± 0.6 µM | > 100 µM | >10.2 |  |
| O=C(NC(=[Se])Nc1ccccc1)c1ccc2c(c1)OCO2 [Compound 10a] |  |  | 37.8% | 22.4% | 57.3% | 49.5% | 44% | 13.1% | at least 45% | more than 85% | 4.2 to 8 µM | 4.4 ± 1 µM | > 100 µM | 11.2 ± 0.8 µM | 8 ± 1 µM | > 100 µM | >22.9 |  |
| COc1ccc(NC(=[Se])NC(=O)c2ccc3c(c2)OCO3)cc1 [Compound 10c] |  |  | 52.7% | 15.6% | 55.7% | 35.5% | 78.2% | 5.1% | at least 45% | more than 85% |  | 8.5 ± 0.6 µM | 5.2 ± 4 µM | 7.3 ± 0.2 µM | 12.9 ± 1.5 µM | 53.8 ± 10.5 µM | 6.3 | 1.5 to 7.3 µM |
| O=C(NC(=[Se])Nc1ccc(C(F)(F)F)cc1)c1ccc2c(c1)OCO2 [Compound 10d] |  |  | 60.6% | 8.4% | 66.5% | 13.9% | 79.6% | 5.1% |  |  |  | 7.9 ± 0.7 µM | 23.4 ± 3.2 µM | 5.7 ± 0.1 µM | 11.8 ± 1.9 µM | > 100 µM | >12.7 |  |
| O=C(NC(=[Se])Nc1ccc(Cl)cc1)c1ccc2c(c1)OCO2 [Compound 10e] |  |  | 55.6% | 16.9% | 54.4% | 21.4% | 45.5% | 6.5% | at least 45% | more than 85% |  | 11.7 ± 1.5 µM | 2.9 ± 3.2 µM | 48.6 ± 0.9 µM | 17.4 ± 3.1 µM | 73.1 ± 5.2 µM | 6.2 |  |
